{"source": "PubChem BioAssay (NCI)", "assay_in_all_cases": "NCI tumour cell line growth inhibition, 48 h", "key": {"EKVX NSCLC": {"test_system": "EKVX NSCLC"}, "SNB-75 CNS": {"test_system": "SNB-75 CNS"}, "BT-549 breast": {"test_system": "BT-549 breast"}, "MDA-N": {"test_system": "MDA-N"}, "HCC-2998 colon": {"test_system": "HCC-2998 colon"}, "CCRF-CEM leukemia": {"test_system": "CCRF-CEM leukemia"}, "HCT-15 colon": {"test_system": "HCT-15 colon"}, "RPMI-8226 leukemia": {"test_system": "RPMI-8226 leukemia"}, "HL-60(TB) leukemia": {"test_system": "HL-60(TB) leukemia"}, "MOLT-4 leukemia": {"test_system": "MOLT-4 leukemia"}, "HOP-92 NSCLC": {"test_system": "HOP-92 NSCLC"}, "UO-31 renal": {"test_system": "UO-31 renal"}, "MDA-MB-231 breast": {"test_system": "MDA-MB-231 breast"}, "MDA-MB-435": {"test_system": "MDA-MB-435"}, "UACC-62 melanoma": {"test_system": "UACC-62 melanoma"}, "NCI-H460 lung": {"test_system": "NCI-H460 lung"}, "NCI-H226 lung": {"test_system": "NCI-H226 lung"}, "U251 CNS": {"test_system": "U251 CNS"}, "KM12 colon": {"test_system": "KM12 colon"}, "NCI/ADR-RES ovarian": {"test_system": "NCI/ADR-RES ovarian"}, "SR leukemia": {"test_system": "SR leukemia"}, "SK-MEL-28 melanoma": {"test_system": "SK-MEL-28 melanoma"}, "NCI-H23 lung": {"test_system": "NCI-H23 lung"}, "OVCAR-4 ovarian": {"test_system": "OVCAR-4 ovarian"}, "SN12C renal": {"test_system": "SN12C renal"}, "ACHN renal": {"test_system": "ACHN renal"}, "CAKI-1 renal": {"test_system": "CAKI-1 renal"}, "SF-268 CNS": {"test_system": "SF-268 CNS"}, "A498 renal": {"test_system": "A498 renal"}, "SNB-19 CNS": {"test_system": "SNB-19 CNS"}, "UACC-257 melanoma": {"test_system": "UACC-257 melanoma"}, "OVCAR-8 ovarian": {"test_system": "OVCAR-8 ovarian"}, "TK-10 renal": {"test_system": "TK-10 renal"}, "SF-295 CNS": {"test_system": "SF-295 CNS"}, "MCF7 breast": {"test_system": "MCF7 breast"}, "DU-145 prostate": {"test_system": "DU-145 prostate"}, "OVCAR-3 ovarian": {"test_system": "OVCAR-3 ovarian"}, "PC-3 prostate": {"test_system": "PC-3 prostate"}, "M14 melanoma": {"test_system": "M14 melanoma"}, "LOX IMVI melanoma": {"test_system": "LOX IMVI melanoma"}, "NCI-H522 lung": {"test_system": "NCI-H522 lung"}, "COLO 205 colon": {"test_system": "COLO 205 colon"}, "RXF 393 renal": {"test_system": "RXF 393 renal"}, "T-47D breast": {"test_system": "T-47D breast"}, "SK-MEL-2 melanoma": {"test_system": "SK-MEL-2 melanoma"}, "SW-620 colon": {"test_system": "SW-620 colon"}, "HOP-62 NSCLC": {"test_system": "HOP-62 NSCLC"}, "OVCAR-5 ovarian": {"test_system": "OVCAR-5 ovarian"}, "SK-OV-3 ovarian": {"test_system": "SK-OV-3 ovarian"}, "786-0 renal": {"test_system": "786-0 renal"}}, "note": "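Results reflect a 48-hour exposure of cells in 96-well plates to compound at five concentrations. TGI is the concentration that stops growth completely.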", "data": [{"smiles": "CC1(C)/C(=N\\O)C2(OS(=O)(=O)C(F)(F)F)CCC1C2", "note": "(centres undefined)", "values": [{"measurement": "TGI", "setting": "EKVX NSCLC", "result": "> 100000", "unit": "nM"}, {"measurement": "TGI", "setting": "SNB-75 CNS", "result": "> 100000", "unit": "nM"}, {"measurement": "TGI", "setting": "BT-549 breast", "result": "> 100000", "unit": "nM"}, {"measurement": "TGI", "setting": "MDA-N", "result": "> 100000", "unit": "nM"}, {"measurement": "TGI", "setting": "HCC-2998 colon", "result": "> 100000", "unit": "nM"}, {"measurement": "TGI", "setting": "CCRF-CEM leukemia", "result": "> 100000", "unit": "nM"}, {"measurement": "TGI", "setting": "HCT-15 colon", "result": "> 100000", "unit": "nM"}, {"measurement": "TGI", "setting": "RPMI-8226 leukemia", "result": "> 100000", "unit": "nM"}, {"measurement": "TGI", "setting": "HL-60(TB) leukemia", "result": "> 100000", "unit": "nM"}, {"measurement": "TGI", "setting": "MOLT-4 leukemia", "result": "> 100000", "unit": "nM"}, {"measurement": "TGI", "setting": "HOP-92 NSCLC", "result": "> 100000", "unit": "nM"}, {"measurement": "TGI", "setting": "UO-31 renal", "result": "> 100000", "unit": "nM"}, {"measurement": "TGI", "setting": "MDA-MB-231 breast", "result": "> 100000", "unit": "nM"}, {"measurement": "TGI", "setting": "MDA-MB-435", "result": "> 100000", "unit": "nM"}, {"measurement": "TGI", "setting": "UACC-62 melanoma", "result": "> 100000", "unit": "nM"}, {"measurement": "TGI", "setting": "NCI-H460 lung", "result": "> 100000", "unit": "nM"}, {"measurement": "TGI", "setting": "NCI-H226 lung", "result": "> 100000", "unit": "nM"}, {"measurement": "TGI", "setting": "U251 CNS", "result": "> 100000", "unit": "nM"}, {"measurement": "TGI", "setting": "KM12 colon", "result": "> 100000", "unit": "nM"}, {"measurement": "TGI", "setting": "NCI/ADR-RES ovarian", "result": "> 100000", "unit": "nM"}, {"measurement": "TGI", "setting": "SR leukemia", "result": "> 100000", "unit": "nM"}, {"measurement": "TGI", "setting": "SK-MEL-28 melanoma", "result": "> 100000", "unit": "nM"}, {"measurement": "TGI", "setting": "NCI-H23 lung", "result": "> 100000", "unit": "nM"}, {"measurement": "TGI", "setting": "OVCAR-4 ovarian", "result": "> 100000", "unit": "nM"}, {"measurement": "TGI", "setting": "SN12C renal", "result": "> 100000", "unit": "nM"}, {"measurement": "TGI", "setting": "ACHN renal", "result": "> 100000", "unit": "nM"}, {"measurement": "TGI", "setting": "CAKI-1 renal", "result": "> 100000", "unit": "nM"}, {"measurement": "TGI", "setting": "SF-268 CNS", "result": "> 100000", "unit": "nM"}, {"measurement": "TGI", "setting": "A498 renal", "result": "> 100000", "unit": "nM"}, {"measurement": "TGI", "setting": "SNB-19 CNS", "result": "> 100000", "unit": "nM"}, {"measurement": "TGI", "setting": "UACC-257 melanoma", "result": "> 100000", "unit": "nM"}, {"measurement": "TGI", "setting": "OVCAR-8 ovarian", "result": "> 100000", "unit": "nM"}, {"measurement": "TGI", "setting": "TK-10 renal", "result": "> 100000", "unit": "nM"}]}, {"smiles": "COc1cc(OCCN(C)C)c2[nH]c(C(=O)N3CC(CCl)c4c3cc(N)c3ccccc43)cc2c1", "note": "(centres undefined)", "values": [{"measurement": "TGI", "setting": "EKVX NSCLC", "result": 52.1, "unit": "nM"}, {"measurement": "TGI", "setting": "SF-295 CNS", "result": 17, "unit": "nM"}, {"measurement": "TGI", "setting": "MCF7 breast", "result": 11, "unit": "nM"}, {"measurement": "TGI", "setting": "DU-145 prostate", "result": 1080, "unit": "nM"}, {"measurement": "TGI", "setting": "SNB-75 CNS", "result": 20, "unit": "nM"}, {"measurement": "TGI", "setting": "BT-549 breast", "result": 379, "unit": "nM"}, {"measurement": "TGI", "setting": "MDA-N", "result": "< 10", "unit": "nM"}, {"measurement": "TGI", "setting": "HCC-2998 colon", "result": "< 10", "unit": "nM"}, {"measurement": "TGI", "setting": "CCRF-CEM leukemia", "result": "> 100000", "unit": "nM"}, {"measurement": "TGI", "setting": "OVCAR-3 ovarian", "result": "< 10", "unit": "nM"}, {"measurement": "TGI", "setting": "PC-3 prostate", "result": 736, "unit": "nM"}, {"measurement": "TGI", "setting": "M14 melanoma", "result": "< 10", "unit": "nM"}, {"measurement": "TGI", "setting": "LOX IMVI melanoma", "result": "< 10", "unit": "nM"}, {"measurement": "TGI", "setting": "HCT-15 colon", "result": 1320, "unit": "nM"}, {"measurement": "TGI", "setting": "NCI-H522 lung", "result": "< 10", "unit": "nM"}, {"measurement": "TGI", "setting": "HOP-92 NSCLC", "result": "< 10", "unit": "nM"}, {"measurement": "TGI", "setting": "COLO 205 colon", "result": 10.2, "unit": "nM"}, {"measurement": "TGI", "setting": "RXF 393 renal", "result": "< 10", "unit": "nM"}, {"measurement": "TGI", "setting": "T-47D breast", "result": 1790, "unit": "nM"}, {"measurement": "TGI", "setting": "MDA-MB-231 breast", "result": 1170, "unit": "nM"}, {"measurement": "TGI", "setting": "SK-MEL-2 melanoma", "result": "< 10", "unit": "nM"}, {"measurement": "TGI", "setting": "SW-620 colon", "result": 265, "unit": "nM"}, {"measurement": "TGI", "setting": "UACC-62 melanoma", "result": "< 10", "unit": "nM"}, {"measurement": "TGI", "setting": "NCI-H226 lung", "result": 31.1, "unit": "nM"}, {"measurement": "TGI", "setting": "NCI/ADR-RES ovarian", "result": 49.8, "unit": "nM"}, {"measurement": "TGI", "setting": "NCI-H23 lung", "result": "< 10", "unit": "nM"}, {"measurement": "TGI", "setting": "HOP-62 NSCLC", "result": "< 10", "unit": "nM"}, {"measurement": "TGI", "setting": "OVCAR-5 ovarian", "result": 213, "unit": "nM"}, {"measurement": "TGI", "setting": "SK-OV-3 ovarian", "result": 1320, "unit": "nM"}, {"measurement": "TGI", "setting": "A498 renal", "result": "< 10", "unit": "nM"}, {"measurement": "TGI", "setting": "786-0 renal", "result": "< 10", "unit": "nM"}]}]}
